{"source": "patent US20050170431A1", "about": "“PYK2 crystal structure and uses” (Plexxikon, Inc., priority 2003, published 2005)", "biological_target": "T1, Pyk2 kinase domain residues 419 to 691 (Homo sapiens, UniProt Q14289)", "T1 construct": "PYK2 kinase domain I420-M691 (not including first 21 aa in); made in house; host or cells: E. coli BL21 (DE3) pLysS", "T1 sequence (Q14289 420-691)": "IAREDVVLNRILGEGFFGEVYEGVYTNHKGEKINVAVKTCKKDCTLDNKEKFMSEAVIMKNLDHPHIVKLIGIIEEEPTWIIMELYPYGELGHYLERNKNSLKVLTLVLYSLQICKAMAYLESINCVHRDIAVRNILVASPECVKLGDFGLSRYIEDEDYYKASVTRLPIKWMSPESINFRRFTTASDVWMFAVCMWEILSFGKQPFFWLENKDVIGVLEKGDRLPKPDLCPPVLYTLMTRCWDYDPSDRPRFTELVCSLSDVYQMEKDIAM", "experiment": "PYK2 kinase activity assay in AlphaScreen, inhibition by ATP analogs", "type": "biochemical", "conditions": "Pyk2 at 8 ng/well and ATP at 10 uM; read-out: affinity with Pyk2", "protocol": "As an exemplary kinase assay, the kinase activity of PYK2 was measured in AlphaScreening (Packard BioScience). The kinase buffer (HMNB) contains HEPES 50 mM at pH7.2, Mg/Mn 5 mM each, NP-40 0.1%, and BSA at final 50 ug/ml. AlphaScreening is conducted as described by the manufacturer. In brief, the kinase reaction is performed in 384-well plate in 25 ul volume. The substrate is biotin-(E4Y)3 at final concentration of 1 nM. The final concentration of ATP is 10 uM. For compound testing the final DMSO concentration is 1%. The reaction is incubated in 31° C. for 1 hour.\nThe Pyk2 kinase domain residues 419 to 691 is an active kinase in AlphaScreen. […] Inhibition by ATP analogs was tested with Pyk2 at 8 ng/well and ATP at 10 uM. […] Adenosine and AMP-PCP have little effect on PYK2 in the concentration tested.", "data": [{"smiles": "Nc1ncnc2c1ncn2[C@@H]1O[C@H](COP(=O)(O)OP(=O)(O)OP(O)(O)=S)[C@@H](O)[C@H]1O", "note": "[ATP-g-S]", "values": [{"measurement": "IC50", "result": 14, "unit": "µM"}]}, {"smiles": "Nc1ncnc2c1ncn2[C@@H]1O[C@H](COP(=O)(O)OP(=O)(O)O)[C@@H](O)[C@H]1O", "note": "[ADT, ADP]", "values": [{"measurement": "IC50", "result": 14, "unit": "µM"}]}]}
